Test results reported in US20240217948A1, “CRYSTALLINE FORMS OF A LPA1 ANTAGONIST” (Bristol-Myers Squibb Company, priority 2022, published 2024).

Assays:
[1] = Moisture sorption isotherms; format: physicochemical; details: 25° C., 4-95% RH (FIG. 4)
Experimental: Moisture sorption isotherms were collected in a TA Instrument VTI-SA+ Vapor Sorption Analyzer using approximately 270 mg of sample in a 250 μL ceramic pan. The sample was dried at 30° C. until the loss rate of 0.005 wt %/min was obtained for 10 minutes. The sample was tested at 25° C. and 4, 5, 15, 25, 35, 45, 50, 65, 75, 85, and 95% RH. Equilibration at each RH was reached when the rate of 0.01 wt %/min for 35 minutes was achieved or a maximum of 600 minutes.

[2] = test system: idiopathic pulmonary fibrosis; details: patients with IPF; cited from earlier work
[3] = test system: progressive pulmonary fibrosis; details: patients with PPF, versus placebo, 52-week study period; cited from earlier work

Structure (SMILES): CCCN(C)C(=O)OCc1c(-c2ccc(O[C@H]3CCC[C@H](C(=O)O)C3)c(C)n2)nnn1C [Form A]
- hygroscopicity [1]: non-hygroscopicity

Structure (SMILES): COC(=O)c1ccc2c(c1)NC(=O)/C2=C(\Nc1ccc(N(C)C(=O)CN2CCN(C)CC2)cc1)c1ccccc1 [nintedanib]
- decline in lung function [2]: significantly reduce the decline in lung function
- progression of lung fibrosis (annual rate of decline in FVC) [3]: slower progression of lung fibrosis

Structure (SMILES): Cc1ccc(=O)n(-c2ccccc2)c1 [pirfenidone]
- decline in lung function [2]: significantly reduce the decline in lung function
